# Laboratory results: patent US9556139B2, “6-substituted phenoxychroman carboxylic acid derivatives” (Array BioPharma Inc., priority 2008, dated 2017)
# Biological target: human DP2 (Homo sapiens (Human), UniProt Q9Y5Y4)
# Experiment: DP-2 Binding Inhibition Assay (3H-PGD2 binding to membranes of K562 cells expressing DP2)
# Conditions: read-out: EC50 (Nm) 1% HSA; inhibition of 3H-PGD2 binding, 1% HSA
# Method: DP-2 Binding Inhibition Assay
# The coding sequence of human DP2 was introduced into the human Leukemic cell line K562 by electroporation and stable clones expressing DP2 were obtained by limiting dilution followed by cell surface staining with a rat monoclonal antibody specific for human DP2. Membranes were prepared from one of these DP2 expressing clones and used to determine the ability of compounds of the present invention to inhibit binding of prostaglandin D2 (PGD2) to its receptor DP2 in the presence of one or more of the following serum protein concentrations, 0.1% BSA, 1% HSA or 4% HSA, by the following procedure. Membranes (1.25 μg/well for 0.1% BSA and 6 μg/well for 1% or 4% HSA) were mixed with ^3H-labeled PGD2 and various concentrations of test compounds in 150 μL of binding buffer (50 mM Tris-HCl, pH 7.4, 40 mM MgCl2, 0.1% bovine serum albumin, 0.1% NaN3) in 96-well U-bottom polypropylene plates. After incubation for 60 minutes at room temperature, the assay was transferred to a filtration plate (#MAFB; Millipore Corporation, Bedford, Mass.), and washed three times with binding buffer. Radioactivity was measured by a scintillation counter (TopCount; PerkinElmer Life Sciences, Boston, Mass.). Nonspecific binding was determined by incubations in the presence of 1 μM unlabeled PGD2 or 5 μM of a known DP2 antagonist. EC50 values for inhibition of binding were determined for each compound tested from the inflexion point of a standard 4-parameter logistical curve fitted to the values obtained.
# Chain of human DP2 (Q9Y5Y4 whole entry): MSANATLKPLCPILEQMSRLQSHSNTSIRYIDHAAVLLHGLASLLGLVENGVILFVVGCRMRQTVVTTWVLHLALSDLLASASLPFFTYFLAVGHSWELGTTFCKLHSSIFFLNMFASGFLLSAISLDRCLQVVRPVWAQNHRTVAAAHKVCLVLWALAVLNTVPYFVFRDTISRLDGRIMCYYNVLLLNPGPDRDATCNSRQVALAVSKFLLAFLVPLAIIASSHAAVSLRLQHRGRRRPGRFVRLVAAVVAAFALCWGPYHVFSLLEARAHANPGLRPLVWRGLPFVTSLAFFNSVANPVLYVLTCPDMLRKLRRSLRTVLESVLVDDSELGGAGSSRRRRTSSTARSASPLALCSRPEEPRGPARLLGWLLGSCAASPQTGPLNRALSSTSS
row,SMILES,EC50
1,"N#Cc1cc2c(cc1Oc1ccc(C(=O)Nc3ccc(Cl)cc3)cc1)OCCC2C(=O)O (stereo not drawn) [Example 74, 7-(4-(4-Chlorophenylcarbamoyl)phenoxy)-6-cyanochroman-4-carboxylic acid]",23.3 nM
2,"N#Cc1cc2c(cc1Oc1ccc(C(=O)NC3Cc4ccc(Cl)cc4C3)cc1)OCCC2C(=O)O (stereo not drawn) [Example 73, 7-(4-(5-Chloro-2,3-dihydro-1H-inden-2-ylcarbamoyl)phenoxy)-6-cyanochroman-4-carboxylic acid]",42.4 nM

# Same assay, conditions: read-out: EC50 (nM) 4% HSA; inhibition of 3H-PGD2 binding, 4% HSA
row,SMILES,EC50
1,"O=C(NCCc1cc(Cl)cc(Cl)c1)c1ccc(Oc2cc3c(cc2Cl)C(C(=O)O)CCO3)cc1 (stereo not drawn) [Example 148, Sodium 6-chloro-7-(4-(3,5-dichlorophenethylcarbamoyl)phenoxy)chroman-4-carboxylate]",196 nM
2,"O=C(NCCc1cc(F)ccc1Oc1ccc(Cl)cc1Cl)c1ccc(Oc2cc3c(cc2Cl)C(C(=O)O)CCO3)cc1 (stereo not drawn) [Example 213, sodium 6-chloro-7-(4-(2-(2,4-dichlorophenoxy)-5-fluorophenethylcarbamoyl)phenoxy)chroman-4-carboxylate]",45.1 nM
3,"COc1cc(Cl)c(CCNC(=O)c2ccc(Oc3cc4c(cc3Cl)C(C(=O)O)CCO4)cc2)c(OC)c1 (stereo not drawn) [Example 226, 6-chloro-7-(4-(2-chloro-4,6-dimethoxyphenethylcarbamoyl)phenoxy)chroman-4-carboxylic acid]",88.5 nM
4,"COc1ccc(Br)cc1CCNC(=O)c1ccc(Oc2cc3c(cc2Cl)C(C(=O)O)CCO3)cc1 (stereo not drawn) [Example 90, Sodium 7-(4-(5-bromo-2-methoxyphenethylcarbamoyl)phenoxy)-6-chlorochroman-4-carboxylate]",153 nM
5,"CCOc1cc(OC)ccc1CCNC(=O)c1ccc(Oc2cc3c(cc2Cl)C(C(=O)O)CCO3)cc1 (stereo not drawn) [Example 228, 6-chloro-7-(4-(2-ethoxy-4-methoxyphenethylcarbamoyl)phenoxy)chroman-4-carboxylic acid]",88.9 nM

# The next lines start with the values.
row,EC50,SMILES
1,426 nM,"CSc1ccc(CCNC(=O)c2ccc(Oc3cc4c(cc3Cl)C(C(=O)O)CCO4)cc2)cc1 (stereo not drawn) [Example 118, Sodium 6-chloro-7-(4-(4-(methylthio)phenethylcarbamoyl)phenoxy)chroman-4-carboxylate]"
2,111 nM,"O=C(NCCc1ccc(Cl)cc1OCC1CC1)c1ccc(Oc2cc3c(cc2Cl)C(C(=O)O)CCO3)cc1 (stereo not drawn) [Example 199, sodium 6-chloro-7-(4-(4-chloro-2-(cyclopropyl-methoxy)phenethylcarbamoyl)phenoxy)chroman-4-carboxylate]"
3,521 nM,"O=C(NCCc1ccccc1F)c1ccc(Oc2cc3c(cc2Cl)C(C(=O)O)CCO3)cc1 (stereo not drawn) [Example 153, Sodium 6-chloro-7-(4-(2-fluorophenethylcarbamoyl)phenoxy)chroman-4-carboxylate]"
4,301 nM,"O=C(NCCc1ccc(C2CC2)cc1Cl)c1ccc(Oc2cc3c(cc2Cl)C(C(=O)O)CCO3)cc1 (stereo not drawn) [Example 30, Sodium 6-chloro-7-(4-(2-chloro-4-cyclopropylphenethylcarbamoyl)phenoxy)chroman-4-carboxylate]"
5,169 nM,"Cc1ccc(CCNC(=O)c2ccc(Oc3cc4c(cc3Cl)C(C(=O)O)CCO4)cc2)c(C)c1 (stereo not drawn) [Example 21, Sodium 6-chloro-7-(4-(2,4-dimethylphenethylcarbamoyl)phenoxy)chroman-4-carboxylate]"
6,242 nM,"O=C(NC1CCN(c2cccc(C(F)(F)F)c2)C1)c1ccc(Oc2cc3c(cc2Cl)C(C(=O)O)CCO3)cc1 (stereo not drawn) [Example 122, Sodium 6-chloro-7-(4-(1-(3-(trifluoromethyl)phenyl)pyrrolidin-3-ylcarbamoyl)phenoxy)chroman-4-carboxylate]"
7,619 nM,"COc1ccc(CCNC(=O)c2ccc(Oc3cc4c(cc3Cl)C(C(=O)O)CCO4)cc2)c(Cl)c1 (stereo not drawn) [Example 100, Sodium 6-chloro-7-(4-(2-chloro-4-methoxyphenethylcarbamoyl)phenoxy)chroman-4-carboxylate]"
8,160 nM,"O=C(NCCc1ccccc1C(F)(F)F)c1ccc(Oc2cc3c(cc2Cl)C(C(=O)O)CCO3)cc1 (stereo not drawn) [Example 152, Sodium 6-chloro-7-(4-(2-(trifluoromethyl)phenethylcarbamoyl)phenoxy)chroman-4-carboxylate]"
